Data from paper PMC12140300, “Development of Carbon‐11 Labeled Pyrimidine Derivatives as Novel Positron Emission Tomography (PET) Agents Enabling Brain Sigma‐1 Receptor Imaging” (Advanced Science, 2025).

What was measured:
σ2R = test: Ex vivo competitive radioligand binding assay for σ2R, [3H]-DTG; set-up: species or system Dunkin Hartley guinea pig; settings: selectivity ratio, guinea pig brain membranes
Protocol: The ex vivo binding affinities of σRs of CNY‐01 and CNY‐02 were measured using a competitive radioligand binding assay.^[ [35] ^]
The following specific radioligands and tissue sources were used: (a) σ 1R, [^3H] (+)‐pentazocine, Dunkin Hartley guinea pig brain membranes; (b) σ 2R, [^3H]‐DTG, Dunkin Hartley guinea pig brain membranes. […] For σ 2R binding study, the membrane suspension was incubated with [^3H]‐DTG (3 nM), different concentration test compounds, within 400 nM (+)‐SKF10047 to block σ 1R. Nonspecific binding was conducted in both binding assays under similar conditions, adding […] haloperidol. After incubation, the mixture was rapidly filtrated through Whatman GF/B glass filters, washed twice and transferred to scintillation vials, and the radioactivity bound was measured by a Beckman LS 6500 liquid scintillation counter. Inhibition constants (Ki) were calculated based on the Cheng and Prusoff equation after the IC50 values were obtained.

σ1R [1] = biological target: T1, σ1R (Mus musculus, UniProt O55242); test: Mice PET/CT imaging, baseline and self-blocking; assay type: in vivo, C57BL/6 mice
T1 construct: The PET/CT studies in mice followed previously reported procedures; from tissue; host or cells: mouse brain in vivo (C57BL/6 wild type; 5xFAD transgenic)
Protocol: PET/CT imaging studies of [^11C]CNY‐01 and [^11C]CNY‐02 were performed in male C57BL/6 mice. […] The whole‐brain time‐activity curve (TAC) of each tracer was generated. […] To investigate the binding specificity of [^11C]CNY‐01 and [^11C]CNY‐02, blocking studies were carried out by pre‐administrating mice with corresponding unlabeled ligands. […] This is due to the receptors in peripheral tissues being occupied by CNY‐01, leading to more radiotracer entering the brain and quickly washing out. […] Of note, the TACs show an increase in brain tracer uptake during the blocking studies, which could be attributed to peripheral blocking effects. To address this, we normalized the brain uptake data to the maximum radioactivity observed in the blood (input function). This normalization allowed us to account for peripheral changes in tracer availability.
Figure 3 Mice PET/CT study with [^11C]CNY‐01 and [^11C]CNY‐02. A) Representative baseline and blocking (pre‐treated with 1.0 mg kg^−1 CNY‐01) PET/CT images of [^11C]CNY‐01 focused on the brain (summed 30‒60 min, n = 4). B) Whole brain time‐activity curves of [^11C]CNY‐01 for baseline and blocking mice. C) The normalized baseline and blocking TACs of [^11C]CNY‐01 (normalized the brain uptake curves with the maximum radioactivity in the blood at each time point). D) Representative baseline and blocking (pre‐treated with 1.0 mg kg^−1 CNY‐02) PET/CT images of [^11C]CNY‐02 focused on the brain (summed 30‒60 min, n = 4). E) Whole brain time‐activity curves of [^11C]CNY‐02 for baseline and blocking mice. F) The normalized baseline and blocking TACs of [^11C]CNY‐02 (normalized the brain uptake curves with the maximum radioactivity in the blood at each time point). Data were presented as mean ± standard error of the mean (SEM). Quantification of results was performed using Student's t‐test (***p < 0.0001).
The PET/CT studies in mice followed previously reported procedures with minor modifications.^[ [53], [54] ^] Mice (wild‐type: C57BL/6, male, 6‐month‐old; AD transgenic: 5xFAD, male, 6‐month‐old, n = 4 for each group) were anesthetized with inhalational isoflurane (Patterson Vet Supply, Inc., Greeley, CO, USA) at 2.0% in a carrier of 2 L min^−1 medical oxygen, and maintained at 1.0% isoflurane during the imaging scan. Mice were injected with radiotracer (200 µL) via lateral tail vein catheterization at the start of the dynamic PET scan (Gamma Medica, Northridge, CA, USA). For blocking studies, the blocking agent was administered via the tail vein 5 min before radiotracer injection. Dynamic PET acquisition lasted 60 min and was followed by computed tomography (CT) for anatomic co‐registration. […] Reconstructed images were exported from the scanner in DICOM format and were analyzed using PMOD (PMOD 4.01).

[2] = NHP plasma and metabolite analysis; assay type: in vivo, rhesus macaque; settings: 30-minute mark
From the text: Understanding the metabolism of [^11C]CNY‐01 is crucial for modeling its distribution kinetics and evaluating safety profiles. Figure 4B illustrates the presence of radiometabolites in arterial plasma following a bolus injection of [^11C]CNY‐01. […] This characteristic makes it well‐suited for kinetic modeling and reducing background signal interference.
During the PET/MR scanning, macaque arterial blood samples were collected synchronously. Metabolite extraction and analysis were based on published methods.^[ [54], [60] ^] Briefly, the blood samples were centrifuged to isolate plasma. Next, protein precipitation was achieved by mixing the plasma with acetonitrile (v/v = 1). The mixture was then centrifuged again to obtain protein‐free plasma. A 1 mL aliquot of the protein‐free supernatant was diluted in 4 mL of deionized water, and the radiometabolites were analyzed by HPLC. HPLC condition: Mobile Phase A: water + 0.1% formic acid; Mobile Phase B: acetonitrile + 0.1% formic acid; separation method = 95/5 – 50/50 A/B from 3–8 min linear gradient; 50/50–5/95 A/B from 8–10 min linear gradient; 5/95 A/B from 10–11 min isocratic; flow rate 2 mL min^−1.

σ1R [3] = biological target: T1, σ1R; test: PET/CT imaging in 5xFAD transgenic and WT mice; assay type: in vivo, 5xFAD mice; settings: 6-month-old male mice, PET/CT 30–60 min
From the text: Numerous studies have shown that σ 1R is abnormally expressed in the AD brain, and targeting σ 1R becomes a promising strategy for diagnosis and treatment of AD.^[ [11], [49] ^] To evaluate the diagnostic potential of [^11C]CNY‐01 for AD and its potential application in studying the relationship between the σ 1R and AD pathology, we conducted PET imaging studies on 5xFAD transgenic mice model and the corresponding wild‐type (WT) mice. […] Of particular note, brain regions with relatively high σ 1R expression observed higher reduction of radioactivity uptake, such as the striatum, hippocampus, and cerebellum, indicating a decrease in σ 1R expression in the brain under AD pathological conditions, consistent with previous reports (Figure 5B).^[ [11], [49], [50] ^]
Figure 5 PET/CT imaging studies of [^11C]CNY‐01 in WT and 5xFAD mouse model. A) Representative PET/CT images (30–60 min) focused on the WT and 5xFAD mice brain. (n = 4). […] Data were presented as mean ± standard error of the mean (SEM). Quantification of results was performed using Student's t‐test (****p < 0.0001, ***p < 0.001, **p < 0.01, […]).
The PET/CT studies in mice followed previously reported procedures with minor modifications.^[ [53], [54] ^] […] Reconstructed images were exported from the scanner in DICOM format and were analyzed using PMOD (PMOD 4.01).

T1 sequence (O55242 whole entry): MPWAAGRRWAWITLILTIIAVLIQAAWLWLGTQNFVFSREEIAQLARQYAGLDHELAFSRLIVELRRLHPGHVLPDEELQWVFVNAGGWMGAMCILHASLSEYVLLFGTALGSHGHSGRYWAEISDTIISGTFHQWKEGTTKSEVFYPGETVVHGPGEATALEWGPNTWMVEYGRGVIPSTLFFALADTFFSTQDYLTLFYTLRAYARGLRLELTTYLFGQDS

COc1ccc(-c2nc(C)c(Cl)c(OCCCN3CCCCC3)n2)cc1 [CNY-01, 5‐chloro‐2‐(4‐methoxyphenyl)‐4‐methyl‐6‐(3‐(piperidin‐1‐yl)propoxy)pyrimidine]
σ2R/σ1R (σ2R): 322

Cc1nc(-c2ccc(O[11CH3])cc2)nc(OCCCN2CCCCC2)c1Cl [[^11C]CNY-01]
maximum standard uptake value (SUV) in the brain (σ1R [1]; male C57BL/6 mice, baseline PET/CT): 1.3
blocking effect, brain uptake normalized to maximum radioactivity in the blood (σ1R [1]; pre-treated with 1.0 mg kg^−1 of the corresponding unlabeled ligand): significant blocking effect
parent compound present in plasma [2]: over 30%
brain uptake in 5xFAD mice compared to WT mice (σ1R [3]): significantly lower uptake

Cc1nc(-c2ccc(Cl)cc2)nc(OCCCN2CCN(C)CC2)c1Cl [CNY-02, 5‐chloro‐2‐(4‐chlorophenyl)‐4‐methyl‐6‐(3‐(4‐methylpiperazin‐1‐yl)propoxy)pyrimidine]
σ2R/σ1R (σ2R): 627
